Entries after “also recorded” stand apart in the source; their conditions may differ.
Legend:
ASGR = biological target: T1, ASGR (Mus musculus, UniProt P24721+P34927); experiment: Hepatocyte binding test with 125I-labeled ligands, Scatchard analysis; details: mouse hepatocytes, 4° C., 2 hours
T1 construct: endogenous in cells; host or cells: primary hepatocytes from C57BL/6 mice (7W, male)
T1 sequence (P34927 1-284): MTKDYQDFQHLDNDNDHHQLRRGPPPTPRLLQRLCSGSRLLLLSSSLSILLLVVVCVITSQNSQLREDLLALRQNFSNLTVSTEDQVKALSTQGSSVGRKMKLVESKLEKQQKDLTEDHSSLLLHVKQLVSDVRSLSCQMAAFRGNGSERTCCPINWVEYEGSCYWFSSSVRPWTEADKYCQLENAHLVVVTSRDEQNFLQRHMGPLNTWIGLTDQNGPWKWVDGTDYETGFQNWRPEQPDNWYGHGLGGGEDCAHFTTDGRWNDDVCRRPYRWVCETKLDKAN
T1 sequence (P24721 1-301): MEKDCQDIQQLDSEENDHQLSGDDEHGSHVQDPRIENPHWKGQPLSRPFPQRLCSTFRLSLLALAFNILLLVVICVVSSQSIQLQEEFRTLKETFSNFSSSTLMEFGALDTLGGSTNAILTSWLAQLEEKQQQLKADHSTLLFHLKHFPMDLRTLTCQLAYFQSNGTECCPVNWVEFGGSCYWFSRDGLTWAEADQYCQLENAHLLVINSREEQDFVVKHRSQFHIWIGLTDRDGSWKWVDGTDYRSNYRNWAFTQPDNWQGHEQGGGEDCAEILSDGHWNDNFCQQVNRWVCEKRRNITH
Protocol: The test for binding of a modified product to hepatocytes was conducted using mouse-separated hepatocytes prepared by the collagenase reflux method which is a modification of the method of Berry et al. (M. N. Berry et al., J. Cell Biol., 43, 506-520 (1969)). That is, seven mice (C57BL/6, 7W, male) were refluxed with a collagenase (type I, supplied by Wako Pure Chemical Industries, Ltd.) and each liver thereof was then severed. Each liver was filtered using a cell filter. Hepatocytes were then collected through centrifugation at a low rate (50 g×1 min), and incubated for from 1 to 4 hours in a D-MEM medium containing 10% FBS (supplied by Gibco, containing 100 U/ml of penicillin, 100 μg/ml of streptomycin and 50 μg/ml of gentamicin) using a tissue culture dish of 150 mm (supplied by Iwaki Garasu K.K.). […]
The hepatocyte binding test was conducted by the method of Chang et al. (T. Chang et al., BBA 942. 57-64 (1988)). […] Thereafter, the radioactivity by the non-specific binding was subtracted from the radioactivity of 0.8 ml of 1 ml of the 0.1 N NaOH solution containing 0.5% SDS, and the radioactivity of the total amount thereof was calculated from the above-obtained value. The thus-calculated value was defined as an amount of a bound fraction. […] The total protein amount of the cells was calculated by the Lorry method using 0.1 ml of the solution. […]

[1] = tested on: mouse-separated hepatocytes; experiment: Uptake of 125I-labeled modified product into hepatocytes; format: cell-based; details: 24 nM, 37° C.
Protocol: The test for uptake into hepatocytes was also conducted according to the method of Chang et al (T. Chang et al., BBA 942. 57-64 (1988)). The cells which were approximately in the almost confluent state were washed once with a D-MEM medium (pH 7.4) containing 0.1% BSA and 10 mM Hepes, and the buffer was added thereto. The mixture was incubated in 5% CO2 at 37° C. for 30 minutes. […] On the other hand, the non-specific uptake was conducted by adding 100 mM N-acetylgalactosamine in each of the labeled solutions. Each plate incubated was moved on an ice bath after the reaction. A part of the medium was sampled, and a D-PBS solution (free from Ca^2+ and Mg^2+) containing 20 mM EGTA cooled at 4° C. was added thereto. The mixture was allowed to stand for 5 minutes. This washing was repeated twice. Further, the plate was washed once with a D-PBS solution (free from Ca^2+ and Mg^2+) cooled, and then allowed to stand at −20° C. for 30 minutes or more. The radioactivity by the non-specific binding was subtracted from the radioactivity of 0.8 ml of 1 ml of the 0.1 N NaOH solution containing 0.5% SDS in each well, and the radioactivity of the total amount thereof was calculated from the above-obtained value. The thus-calculated value was defined as an amount of an uptake fraction. Meanwhile, a value obtained by subtracting the radioactivity by the non-specific degradation from the radioactivity of the total trichloroacetic acid-soluble fraction in the medium was defined as an amount of a degradation fraction. The uptake tast was conducted with each point of n=3. The total protein amount of the cells was calculated by the Lorry method with respect to 0.1 ml of the solution.

| Molecule | dissociation constant (Kd1) of high affinity site (ASGR) | time to saturation of uptake [1] | degradation component ([1]; 0-4 hours) | uptake component in hepatocytes ([1]; 0-4 hours) |
| --- | --- | --- | --- | --- |
| CC(C)(C)OC(=O)NC(Cc1ccc(O)cc1)C(=O)NCCCCCC(=O)NC(CCC(=O)NC(CCC(=O)NCCOCCOCCOC1OC(CO)C(O)C(O)C1O)C(=O)NCCOCCOCCOC1OC(CO)C(O)C(O)C1O)C(=O)NCCOCCOCCOC1OC(CO)C(O)C(O)C1O (centres unmarked) [(Gal)3-Tyr-Boc] | in the order level of multi-ten nM |  |  |  |
| CC(=O)NC1C(OCCOCCOCCNC(=O)CCC(NC(=O)CCC(NC(=O)CCCCCNC(=O)C(Cc2ccc(O)cc2)NC(=O)OC(C)(C)C)C(=O)NCCOCCOCCOC2OC(CO)C(O)C(O)C2NC(C)=O)C(=O)NCCOCCOCCOC2OC(CO)C(O)C(O)C2NC(C)=O)OC(CO)C(O)C1O (centres unmarked) [(GalNAc)3-Tyr-Boc] | in the order level of multi-ten nM; also recorded: lower than that of (Gal)3-Tyr-Boc |  |  |  |
| ASOR: asialoorosomucoid produced from human orosomucoid, natural ligand of ASGR |  | 1 h | gradually increased with the lapse of time | observed after 30 minutes of the incubation |
